From patent US20090069324A1, “CHEMICAL INHIBITORS OF BFL-1 AND RELATED METHODS” (The Burnham Institute, priority 2007, published 2009)

Tests used:
Bcl-2 = biological target: T1, Bcl-2 (Homo sapiens, UniProt P10415); experiment: Bcl-2/FITC-Bim FPA selectivity assay; format: binding; conditions: Bcl-2/FITC-Bim complex
T1 construct: lacking their C-terminal transmembrane domains (approximately last 20 amino-acids); GST (N); made in house; host or cells: XL-1 Blue cells (E. coli), pGEX 4T-1
Text: This example illustrates assays for determining the selectivity of chemical inhibitors for Bfl-1. Bfl-1, as with other Bcl-2 family proteins, participates in a very complex and intricate network of interactions with other representatives of the family. Therefore, two selectivity assays involving family members Bcl-2 and Bcl-B were developed.
For Bcl-2, a FITC-conjugated peptide corresponding to the BH3 domain of Bim was used. For Bcl-B, a FITC-conjugated peptide corresponding to a fragment of the TR3/Nur77 protein shown to bind this member of the Bcl-2 family was used.
Probe specificity for target or for cell-based/phenotypic assays data can be determined in orthogonal cell-based assay systems that address the pathway of interest. For example, compounds were tested in Bfl-1/FITC-Bid FPA and TR-FRET assays (FIGS. 7A and 7B, respectively), as well as Bcl-2/FITC-Bim FPA (FIG. 7C) and Bcl-B/FITC-TR3-R8 FPA (FIG. 7D) assays. Data represent concentration in μM x-axis) vs % displacement (y-axis).

Microsomal stability = format: in vitro ADME; conditions: rat liver microsomes, 37.5° C.
Experimental: (§1) CID-779754 (MLS-0067130) has a metabolic half life of >60 min in the presence of rat liver microsomes when incubated at 37.5° C. (FIG. 6A), with 64% of the compound remaining at 1 hour. The plasma stability of CID-779754 is also good, with 79% remaining after incubating at 37.5° C. for 1 hour in fresh rat plasma (FIG. 6B).

Plasma stability = format: in vitro ADME; conditions: fresh rat plasma, 37.5° C.
Experimental: as §1

PAMPA assay = format: in vitro ADME
Solubility = conditions: aqueous buffer
Experimental: Compounds were screened for inhibitory activity of Bfl-1 essentially as described in Example 1, and including a 1 h incubation of Bfl-1 in the presence of compounds and a 4 h incubation after the subsequent addition of the fluorescent probe. […] The assay was screened against the entire NIH small molecule library, which at the time consisted of 65,000 compounds. […] Controls included an “artifact” plate on which a GAPDH assay was performed to check selectivity, and a solubility plate on which a solubility assay was performed to test solubility.

[1] = system: cord blood derived human mast cells (CBMCs); experiment: LDH release cytotoxicity assay; format: cell-based
Experimental: To investigate whether a Bfl-1 inhibitor is cytotoxic to cord blood derived human mast cells (CBMCs), a […] assay based on the measurement of lactate dehydrogenase (LDH) activity is used. CBMC are cultured with various concentrations of the Bfl-1 inhibitor, and LDH release into the culture supernatant is measured. […] The positive control in FIG. 8 is a control included in the LDH kit. Thus, CID-779754 is not cytotoxic to in vitro developed human mast cells.

human mast cells = experiment: Primary mast cell survival assay (activation-induced survival); format: cell-based
Experimental: To validate the biological activity of the probe in a cellular readout that is Bfl-1 dependent, CID-779754 was tested in an assay measuring the effect of compounds on primary mast cell survival.
The effect of a Bfl-1 inhibitor at, for example, 1 μM is tested on CBMCs derived from, for example, 12 different individuals. CBMCs are activated by aggregation of the high-affinity IgE-receptor (FcεRI)±CID-779754. Mast cells are cultured with or without IgE crosslinking (IgECL) agent, without or with Bfl-1 inhibitor. The percentage cell survival upon IgE-receptor activation are compared to cells not activated and the delta survival is calculated. Cell survival is measured by LDH release and data were presented as % difference between cells cultured with or without IgECL.

T1 sequence (P10415 1-218 limits assumed): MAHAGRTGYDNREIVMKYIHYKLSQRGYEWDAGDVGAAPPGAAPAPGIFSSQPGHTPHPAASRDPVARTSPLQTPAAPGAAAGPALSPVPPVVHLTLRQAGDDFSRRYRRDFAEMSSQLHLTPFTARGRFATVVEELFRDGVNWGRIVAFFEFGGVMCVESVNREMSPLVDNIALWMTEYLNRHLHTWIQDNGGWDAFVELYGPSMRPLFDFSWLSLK

SMILES: CN(C)C1=C(Cl)C(=O)N(c2ccc(Cl)c(Cl)c2)C1=O [CID-779754, 3-chloro-1-(3,4-dichlorophenyl)-4-(dimethylamino)-1H-pyrrole-2,5-dione]
- Competition for binding of a BH3 peptide to Bcl-2, in words (Bcl-2): weak activity
- compound remaining at 1 hour (Microsomal stability): 64%
- half-life (Microsomal stability; read-out: metabolic half life): > 1 h
- remaining after incubating for 1 hour (Plasma stability): 79%
- log Pe (PAMPA assay; PAMPA): −4.2
- predicted human GI absorption (PAMPA assay; correlated from PAMPA log Pe): > 50%
- solubility (Solubility): ≤ 100 µM
- cytotoxicity (LDH release) ([1]; 0.1-100 μM, n=4 donors): no cytoxicity
- toxicity to normal human cells ([1]; normal human cells): not toxic to normal human cells
- effect on activation-induced survival of mast cells (human mast cells): inhibited the activation-induced survival of human mast cells
